Results from ChEMBL document CHEMBL4196044, “Design, synthesis and ability of non-gold complexed substituted purine derivatives to inhibit LPS-induced inflammatory response” (Eur J Med Chem, 2018).
The source made the active and inactive calls. The rule behind the calls is not given here.

Experiments:
[1] = tested on: RAW264.7; experiment: Anti-inflammatory activity in mouse RAW264.7 cells assessed as inhibition of LPS-induced TNF-alpha production at 10 uM pretreated for 2 hrs followed by LPS stimulation measured after over night incubation by ELISA relative to control; type: functional
[2] = Cytotoxicity against human THP1 cells assessed as cell viability at 10 uM by CellTiter-Glo luminescent assay relative to control; type: cell-based; details: THP-1 cells, read-out: Activity
[3] = tested on: RAW264.7; experiment: Anti-inflammatory activity in mouse RAW264.7 cells assessed as inhibition of LPS-induced IL-1beta production at 10 uM pretreated for 2 hrs followed by LPS stimulation measured after over night incubation by ELISA relative to control; type: functional
[4] = tested on: RAW264.7; experiment: Anti-inflammatory activity in mouse RAW264.7 cells assessed as inhibition of LPS-induced TNF-alpha production pretreated for 2 hrs followed by LPS stimulation measured after over night incubation by ELISA; type: functional, cell-based
[5] = tested on: RAW264.7; experiment: Inhibition of LPS-induced ERK phosphorylation in mouse RAW264.7 cells at 10 uM measured after 24 hrs by Western blot method; type: cell-based
[6] = tested on: Mus musculus; experiment: Anti-inflammatory activity in ICR mouse assessed as inhibition of carrageenan-induced hind paw edema volume at 10 mg/kg administered via gavage treated for 30 mins post carrageenan challenge measured after 3 to 5 hrs; type: functional, organism-based
[7] = tested on: RAW264.7; experiment: Anti-inflammatory activity in mouse RAW264.7 cells assessed as inhibition of LPS-induced IL-6 production pretreated for 2 hrs followed by LPS stimulation measured after over night incubation by ELISA; type: functional, cell-based
[8] = tested on: RAW264.7; experiment: Anti-inflammatory activity in mouse RAW264.7 cells assessed as inhibition of LPS-induced COX-2 mRNA expression at 10 uM after 24 hrs by RT-qPCR analysis; type: functional, cell-based
[9] = biological target: Transcription factor p65 (Mus musculus) (UniProt Q04207); experiment: Inhibition of LPS-induced NF-kappaB-p65 nuclear translocation in mouse RAW264.7 cells at 10 uM by DAPI staining-based immunofluorescence analysis; type: cell-based
[10] = biological target: MAP kinase p38 (Mus musculus) (UniProt P47811+O08911+Q9WUI1+Q9Z1B7); experiment: Inhibition of LPS-induced p38 phosphorylation in mouse RAW264.7 cells at 10 uM measured after 24 hrs by Western blot method; type: cell-based
[11] = tested on: RAW264.7; experiment: Anti-inflammatory activity in mouse RAW264.7 cells assessed as inhibition of LPS-induced IL-1beta production pretreated for 2 hrs followed by LPS stimulation measured after over night incubation by ELISA; type: functional, cell-based
[12] = tested on: Mus musculus; experiment: Anti-inflammatory activity in ICR mouse assessed as inhibition of carrageenan-induced hind paw edema volume at 10 mg/kg administered via gavage treated for 30 mins post carrageenan challenge measured after 2 to 3 hrs; type: functional, organism-based
[13] = tested on: RAW264.7; experiment: Inhibition of LPS-induced JNK phosphorylation in mouse RAW264.7 cells at 10 uM measured after 24 hrs by Western blot method; type: cell-based
[14] = tested on: RAW264.7; experiment: Anti-inflammatory activity in mouse RAW264.7 cells assessed as inhibition of LPS-induced NO release pretreated for 2 hrs followed by LPS stimulation measured after 48 hrs […]; type: functional, cell-based
[15] = tested on: RAW264.7; experiment: Anti-inflammatory activity in mouse RAW264.7 cells assessed as inhibition of LPS-induced PGE2 production pretreated for 2 hrs followed by LPS stimulation measured after over night incubation by ELISA; type: functional, cell-based
[16] = biological target: T1, NF-kappa-B inhibitor alpha (Mus musculus) (UniProt Q9Z1E3); experiment: Inhibition of LPS-induced IkappaBalpha phosphorylation in mouse RAW264.7 cells at 10 uM measured after 24 hrs by Western blot method; type: cell-based
T1 sequence (whole entry): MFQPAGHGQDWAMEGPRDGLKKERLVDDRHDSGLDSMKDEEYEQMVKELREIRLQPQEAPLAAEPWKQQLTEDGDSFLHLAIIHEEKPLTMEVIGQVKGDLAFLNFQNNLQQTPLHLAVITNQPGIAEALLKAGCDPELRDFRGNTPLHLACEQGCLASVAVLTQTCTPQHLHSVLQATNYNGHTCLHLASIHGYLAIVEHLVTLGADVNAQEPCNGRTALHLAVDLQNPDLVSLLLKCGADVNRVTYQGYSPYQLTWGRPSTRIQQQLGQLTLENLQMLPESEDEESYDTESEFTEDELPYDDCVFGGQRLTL

[17] = tested on: RAW264.7; experiment: Anti-inflammatory activity in mouse RAW264.7 cells assessed as inhibition of LPS-induced iNOS mRNA expression at 10 uM after 24 hrs by RT-qPCR analysis; type: functional, cell-based
[18] = tested on: Mus musculus; experiment: Anti-inflammatory activity in ICR mouse assessed as inhibition of carrageenan-induced hind paw edema volume at 10 mg/kg administered via gavage treated for 30 mins post carrageenan challenge measured after 2 to 5 hrs; type: functional, organism-based

Transcription factor p65 (Mus musculus), sequence (Q04207 whole entry): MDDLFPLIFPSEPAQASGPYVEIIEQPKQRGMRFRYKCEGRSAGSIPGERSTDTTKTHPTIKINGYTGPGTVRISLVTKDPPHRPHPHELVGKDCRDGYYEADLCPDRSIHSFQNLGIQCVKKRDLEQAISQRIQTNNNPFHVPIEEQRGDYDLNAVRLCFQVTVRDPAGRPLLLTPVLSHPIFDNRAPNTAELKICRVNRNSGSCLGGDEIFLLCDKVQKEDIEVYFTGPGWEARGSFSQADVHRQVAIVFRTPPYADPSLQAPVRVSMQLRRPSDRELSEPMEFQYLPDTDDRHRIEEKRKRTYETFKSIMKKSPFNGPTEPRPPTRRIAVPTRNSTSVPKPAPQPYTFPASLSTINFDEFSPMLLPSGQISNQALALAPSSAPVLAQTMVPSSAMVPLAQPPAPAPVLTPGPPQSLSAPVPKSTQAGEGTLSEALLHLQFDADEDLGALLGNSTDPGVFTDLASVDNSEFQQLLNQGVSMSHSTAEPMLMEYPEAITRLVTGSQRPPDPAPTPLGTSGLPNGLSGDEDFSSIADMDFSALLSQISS

COc1cc(Cn2cnc3c(NCc4ccccc4Cl)ncnc32)cc(OC)c1
inhibition at 10 µM [1]: 9.65% | viability at 10 µM [2]: 90.2% | inhibition at 10 µM [3]: 19.8%

c1nc2nc[nH]c(N3CCCC3)c-2n1
inhibition at 10 µM [1]: 11.7% | viability at 10 µM [2]: 91.1% | inhibition at 10 µM [3]: -9.43%

Fc1cc(Nc2ncnc3[nH]cnc23)ccc1Cl
inhibition at 10 µM [1]: 71% | inhibition [4]: Dose-dependent effect | inhibition [5]: Active | inhibition [6]: Active | viability at 10 µM [2]: 99.3% | inhibition [7]: Dose-dependent effect | inhibition [8]: Active | inhibition [9]: Active | inhibition [10]: Active | inhibition [11]: Dose-dependent effect | inhibition [12]: Active | inhibition [13]: Active | IC50 [14]: 4.43 µM | inhibition [15]: Dose-dependent effect | inhibition [16]: Active | inhibition [17]: Active | inhibition at 10 µM [3]: 84.2%

c1coc(CNc2ncnc3[nH]cnc23)c1 [KINETIN]
inhibition at 10 µM [1]: 45.9% | viability at 10 µM [2]: 107% | inhibition at 10 µM [3]: -19.5%

COc1cccc(Nc2ncnc3[nH]cnc23)c1
inhibition at 10 µM [1]: 69.8% | inhibition [4]: Dose-dependent effect | inhibition [5]: Active | viability at 10 µM [2]: 90.7% | inhibition [7]: Dose-dependent effect | inhibition [8]: Active | inhibition [9]: Active | inhibition [10]: Active | inhibition [11]: Dose-dependent effect | inhibition [12]: Active | inhibition [13]: Active | IC50 [14]: 3.38 µM | inhibition [15]: Dose-dependent effect | inhibition [16]: Active | inhibition [17]: Active | inhibition at 10 µM [3]: 88.9%

CCCn1cnc2c(NCc3ccccc3Cl)ncnc21
inhibition at 10 µM [1]: 22.4% | viability at 10 µM [2]: 103% | inhibition at 10 µM [3]: 14.1%

Fc1ccc(CNc2ncnc3nc[nH]c23)cc1
inhibition at 10 µM [1]: 22.4% | viability at 10 µM [2]: 92.9% | inhibition at 10 µM [3]: 14.6%

Clc1ccc(Nc2ncnc3[nH]cnc23)cc1
inhibition at 10 µM [1]: 16.1% | viability at 10 µM [2]: 92% | inhibition at 10 µM [3]: 28.6%

Clc1cccc(Nc2ncnc3[nH]cnc23)c1
inhibition at 10 µM [1]: 18.5% | viability at 10 µM [2]: 91% | inhibition at 10 µM [3]: 12.2%

Clc1ccccc1CNc1[nH]cnc2ncnc1-2
inhibition at 10 µM [1]: 86.2% | inhibition [4]: Dose-dependent effect | inhibition [5]: Active | inhibition [7]: Dose-dependent effect | inhibition [8]: Active | inhibition [9]: Active | inhibition [18]: Active | inhibition [10]: Active | inhibition [11]: Dose-dependent effect | inhibition [12]: Active | inhibition [13]: Active | IC50 [14]: 3.54 µM | inhibition [15]: Dose-dependent effect | inhibition [16]: Active | inhibition [17]: Active | inhibition at 10 µM [3]: 89%

CC(=O)NS(=O)(=O)c1ccc(Nc2ncnc3[nH]cnc23)cc1
inhibition at 10 µM [1]: 12.4% | viability at 10 µM [2]: 90.7% | inhibition at 10 µM [3]: 16.1%

COc1ccc(Nc2ncnc3[nH]cnc23)cc1
inhibition at 10 µM [1]: 25.6% | viability at 10 µM [2]: 100% | inhibition at 10 µM [3]: 7.29%

Oc1ccc(Nc2ncnc3[nH]cnc23)cc1
inhibition at 10 µM [1]: 18.5% | viability at 10 µM [2]: 95.9% | inhibition at 10 µM [3]: 12.4%

Clc1ccccc1CNc1ncnc2nc[nH]c12
viability at 10 µM [2]: 93.8%
